{"source": "patent US9980982B2", "about": "“HE4 based therapy for malignant disease” (Women & Infants Hospital of Rhode Island, priority 2011, dated 2018)", "key": {"[1]": {"test_system": "ovarian cancer (SKOV-3) cells xenograft", "test": "Antisense HE4 oligos in ovarian cancer (SKOV-3) xenografted animals", "type": "in vivo, nude mice", "details": "7 mg/kg bwt, IP, 5 days/week; for effect on tumor progression / tumor burden: within 28 days, versus scrambled, sense oligos and vehicle", "protocol": "Left: Effect of treatment of antisense HE4 oligos (“HE4 antisense 1” corresponds to SEQ ID NO:2 and “HE4 antisense 2” corresponds to SEQ ID NO:4; red and violet, respectively), sense HE4 oligos (green), vehicle, and scrambled sequences (7 mg/kg bwt, IP) 5 days/week on the tumor size in animals xenografted with ovarian cancer (SKOV-3) cells. Right: the weight of the animals treated with oligos progressed as the day progressed, and no toxicity was observed.\nHE4 overexpression promoted ovarian cancer burden in animals (FIG. 24), and caused strong chemoresistance against cisplatin in animals (FIG. 26). Thus, a set of antisense oligos were designed to knockdown the expression levels of HE4 in animals xenografted with ovarian cancer (SKOV-3) cells. Treatment at 5 days/week with antisense HE4 phosphorothio oligos suppressed the tumor progression in animals compared to scrambled or sense HE4 oligos and vehicle treated control within 28 days of the treatment."}, "HE4": {"test_system": "HE4", "test": "HE4 levels in SKOV-3 cell lysates and media by sandwich ELISA", "type": "cell-based, Human", "details": "for effect on HE4 levels in SKOV-3: cytotoxic agents, 24 hrs, serum free DMEM, versus untreated controls; for effect on HE4 levels in media or cell-lysate of SKOV-3 cells: growth factors and cytokines, 6 hours", "protocol": "(§1) Various agents were examined by RT-PCR or by a sandwich ELISA. […] HE4 levels in cell lysates and media were evaluated by a sandwich ELISA.\nCells were grown for 24 h in 100 mm cell culture dishes (Corning, New York, N.Y.), supernatant collected and lysates of washed and scraped cells prepared as described previously (Lange T S et al., 2007Chem Biol Drug Design, 70:302-10). Total protein of lysates was quantitated (BioRad protein estimation kit, Hercules, Calif.), and HE4 levels were determined using the HE4 EIA assay (Fujirebio Diagnostics, Malvern, Pa.), a solid-phase, non-competitive immunoassay using two mouse monoclonal antibodies, directed against two epitopes in the C-WFDC domain. Calibration curves were used to measure HE4 concentrations in both cell lysates and culture media allowing for the calculation of production and secretion of HE4 in pmol/g total cellular protein.\nFIG. 15 is a bar chart showing that treatment with growth factors and cytokines affect the HE4 levels in ovarian cancer cells. SKOV-3 cells (1 million each) were seeded in 100 mm dishes and incubated overnight. The cells were treated with an array of factors (IL-6, Insulin, TNFa, EGF) and incubated for another 6 hours. The media was collected and cells were lysed using the cell lysis buffer. The HE4 content in the media or in the cell-lysate was examined by a HE4 sandwich ELISA kit."}, "[2]": {"test_system": "HE4 overexpressing SKOV-3 clones HE4C1, -C3, -C7", "test": "MTS cell viability assay, HE4 overexpressing SKOV-3 clones", "type": "cell-based, Human", "details": "24 h; for viability at 20 µM: Homo sapiens, SK-OV-3, 24 h, 20 μM doxorubicin, untreated = 100%; for response of HE4 overexpressing SKOV-3 clones to drug treatment (viability, words): clones HE4C1, -C3, -C7, compared to parental SKOV-3", "protocol": "An HE4 overexpressing vector for stable expression was engineered by inserting a coding sequence of human WAP four-disulfide core domain 2 (WFDC2) cDNA into a multiple cloning site of an eukaryotic expression vector, pCMV6-entry (Origene, Rockville, Md.). Transfection of the constructs in SKOV-3 cells was performed using Lipofectamine 2000 (Invitrogen, Carlsbad, Calif.) according to the manufacturer's instructions. Stably transfected cells were selected by resistance to G-418 (500 μg/ml) (Research Products International, Mount Prospect, Ill.), applied 48 h after transfection and continued during cell culture. G-418 resistant cells were resuspended (density 5 cells/ml) in complete medium/G-418 and seeded as 200 μl/well on a 96 well cell culture plate (Corning, New York, N.Y.). Cells growing from single colonies (cloned; stable transfection) were isolated.\n(§2) Cell growth and viability of cell lines (complete medium, 24 h incubation) was determined by the CellTiter 96® AQueous One Solution Assay (Promega Corp, Madison, Wis.) following the manufacturer's recommendations with modifications (Lange T S et al., 2008 PLOS One, 3(5):e2303). Experiments are expressed as the mean of triplicate determinations (X±SD) of a representative experiment in OD (cell growth) or % of absorbance by drug-treated versus untreated cells [=100%] (cell viability). Cisplatin (CDDP), paclitaxel, doxorubicin and camptothecin (CPT) were purchased from (Sigma Aldrich, St. Louis, Mo.).\n(§3) To analyze the potential biological relevance of elevated HE4 production for ovarian cancer cells the efficacy of commonly used anticancer drugs was examined in a viability assay (FIG. 5). SKOV-3 clones or parental cells were treated with cisplatin, paclitaxel, doxorubicin, or camptothecin for 24 h in various concentrations as indicated and the cytotoxicity evaluated."}, "SKOV-3 cells": {"test_system": "SKOV-3 cells", "test": "MTS cell viability assay, parental/wild-type SKOV-3 cells", "type": "cell-based, Human", "details": "24 h", "protocol": "as §2, §3"}, "HE4 mRNA": {"test_system": "HE4 mRNA", "test": "HE4 mRNA expression in SKOV-3 cells by RT-PCR", "type": "cell-based, Human", "details": "stimulation in serum free DMEM (TNF 10 nM, Insulin 100 nM, EGF 10 nM, IL-6 10 nM)", "protocol": "as §1\nTotal RNA isolation from cells was carried out using TRIzol and Reverse transcription on 3 μg RNA using SuperScript III transcriptase according to the manufacturers protocol (Invitrogen, Carlsbad, Calif.) followed by 30 cycles of PCR using the following primer pairs: HE4 sense, 5′-AGG AGC AGA GAA GAC TGG-3′ (SEQ ID NO: 27); HE4 antisense, 5′-TTA TCA TTG GGC AGA GAG-3′ (SEQ ID NO: 28); GAPDH sense, 5′-AAT CCC ATC ACC ATC TTC C-3′ (SEQ ID NO: 29); GAPDH antisense, 5′-GTCCTTCCACGATACCAAAG-3′ (SEQ ID NO: 30). Cycle conditions: 94° C./1 min; 55° C./2 min, 72° C./2 min. PCR products were separated on 2% agarose gels containing 0.4 mg/ml of ethidium bromide."}}, "note": "Oligonucleotides are written 5' to 3', each unit as a sugar letter and its base; * is a phosphorothioate linkage, no mark a phosphodiester; rarer units and linkages stand in square brackets, end groups in braces. Plain capitals give the bases only. Starred links: 1 amine or outer side, 2 acyl side, 3 side chain; linkers in the order of their positions; H or OH if unused. Positions of bridges follow the written chain, without caps; N, C: chain ends. Non-standard residues stand in square brackets, D forms with d. Residues, ends and D or L forms follow the SMILES beside them. Chains are numbered I, II in the order given. Actinocin(9to1) = Cc1c2oc3c(C)ccc(C(=O)[*:1])c3nc-2c(C(=O)[*:2])c(N)c1=O; NMeV = CN[C@H](C(=O)O)C(C)C; d = 2'-deoxy (DNA); Sar = CNCC(=O)O", "data": [{"molecule": "5′ A*C*A*C*C*T*T*C*C*C*A*C*A*G*C*C*A*T*T 3′ (DNA ACACCTTCCCACAGCCATT; DNA, all phosphorothioate, methylation of C not given here) [SEQ ID NO:5]", "values": [{"measurement": "effect on tumor progression / tumor burden", "setting": "[1]", "value": "showed tumor inhibitory activity"}]}, {"molecule": "5′ A*C*A*C*C*T*T*C*C*C*A*C*A*G*C*C*A*T*T*G 3′ [SEQ ID NO:4]", "values": [{"measurement": "toxicity in animals (body weight)", "setting": "[1]", "value": "did not cause any toxicity"}, {"measurement": "effect on tumor progression / tumor burden", "setting": "[1]", "value": "strong reduction in tumor burden"}, {"measurement": "effect on tumor progression / tumor burden", "setting": "[1]; listed as HE4 antisense 2", "value": "suppressed the progression of ovarian tumor growth"}]}, {"molecule": "5′ G*A*C*A*C*C*T*T*C*C*C*A*C*A*G*C*C*A*T 3′ (DNA GACACCTTCCCACAGCCAT; DNA, all phosphorothioate, methylation of C not given here) [SEQ ID NO:3]", "values": [{"measurement": "effect on tumor progression / tumor burden", "setting": "[1]", "value": "showed tumor inhibitory activity"}]}, {"molecule": "5′ G*A*C*A*C*C*T*T*C*C*C*A*C*A*G*C*C*A*T*T 3′ (DNA dG*dA*dC*dA*dC*dC*dT*dT*dC*dC*dC*dA*dC*dA*dG*dC*dC*dA*dT*dT; antisense) [SEQ ID NO:1]", "values": [{"measurement": "effect on tumor progression / tumor burden", "setting": "[1]", "value": "showed tumor inhibitory activity"}]}, {"molecule": "5′ G*A*C*A*C*C*T*T*C*C*C*A*C*A*G*C*C*A*T*T*G 3′ [SEQ ID NO:2]", "values": [{"measurement": "toxicity in animals (body weight)", "setting": "[1]", "value": "did not cause any toxicity"}, {"measurement": "effect on tumor progression / tumor burden", "setting": "[1]; listed as HE4 antisense 1", "value": "suppressed the progression of ovarian tumor growth"}]}, {"molecule": "Cc1c2oc3c(C)ccc(C(=O)N[C@@H]4C(=O)N[C@H](C(C)C)C(=O)N5CCC[C@H]5C(=O)N(C)CC(=O)N(C)[C@@H](C(C)C)C(=O)O[C@@H]4C)c3nc-2c(C(=O)N[C@@H]2C(=O)N[C@H](C(C)C)C(=O)N3CCC[C@H]3C(=O)N(C)CC(=O)N(C)[C@@H](C(C)C)C(=O)O[C@@H]2C)c(N)c1=O", "note": "[Actinomycin-D] (I: T[dV]P[Sar][NMeV] / II: T[dV]P[Sar][NMeV]; ester I:1-I:C, II:1-II:C; linker I:N-II:N via Actinocin(9to1))", "values": [{"measurement": "effect on HE4 levels in SKOV-3", "setting": "HE4", "value": "suppressed HE4 levels"}]}, {"molecule": "C=C1/C(=C\\C=C2/CCC[C@]3(C)[C@@H]([C@H](C)CCCC(C)(C)O)CC[C@@H]23)C[C@@H](O)C[C@@H]1O", "note": "[Calcitriol]", "values": [{"measurement": "effect on HE4 levels in SKOV-3", "setting": "HE4", "value": "upregulated HE4 expression"}]}, {"molecule": "COc1cc2ncnc(Nc3ccc(F)c(Cl)c3)c2cc1OCCCN1CCOCC1", "note": "[Iressa]", "values": [{"measurement": "effect on HE4 levels in SKOV-3", "setting": "HE4", "value": "suppressed HE4 levels"}]}, {"molecule": "CC[C@@]1(O)C(=O)OCc2c1cc1n(c2=O)Cc2cc3ccccc3nc2-1", "note": "[camptothecin]", "values": [{"measurement": "maximum difference in viability between wild-type cells and HE4C1, -3, -7", "setting": "[2]; camptothecin, at 1.2 μM", "value": "≤ 21", "unit": "%"}]}, {"molecule": "COc1cccc2c1C(=O)c1c(O)c3c(c(O)c1C2=O)C[C@@](O)(C(=O)CO)C[C@@H]3O[C@H]1C[C@H](N)[C@H](O)[C@H](C)O1", "note": "[doxorubicin]", "values": [{"measurement": "viability at 20 µM", "setting": "SKOV-3 cells; Homo sapiens, SK-OV-3, wild-type SKOV-3, 20 μM doxorubicin, untreated = 100%", "value": 58, "unit": "%"}, {"measurement": "viability at 20 µM", "setting": "[2]; HE4C1", "value": 70, "unit": "%"}, {"measurement": "viability at 20 µM", "setting": "[2]; HE4C3", "value": 84, "unit": "%"}, {"measurement": "viability at 20 µM", "setting": "[2]; HE4C7", "value": 91, "unit": "%"}]}, {"molecule": "CC(=O)O[C@H]1C(=O)[C@@]2(C)[C@H]([C@H](OC(=O)c3ccccc3)[C@]3(O)C[C@H](OC(=O)[C@H](O)[C@@H](NC(=O)c4ccccc4)c4ccccc4)C(C)=C1C3(C)C)[C@]1(OC(C)=O)CO[C@@H]1C[C@@H]2O", "note": "[paclitaxel]", "values": [{"measurement": "effect on viability of wild-type SKOV-3 cells", "setting": "SKOV-3 cells; paclitaxel 6.25, 12.5 or 25 nM, cisplatin 40 or 80 μM", "value": "reduced the viability of wild-type SKOV-3 cells drastically"}, {"measurement": "response of HE4 overexpressing SKOV-3 clones to drug treatment (viability, words)", "setting": "[2]", "value": "did not display a significantly altered viability"}, {"measurement": "response of HE4 overexpressing SKOV-3 clones to drug treatment (viability, words)", "setting": "[2]; listed as Paclitaxel", "value": "significantly reduced response"}, {"measurement": "effect on HE4 levels in SKOV-3", "setting": "HE4", "value": "suppressed HE4 levels"}]}, {"molecule": "EGF: epidermal growth factor (NSDSECPLSHDGYCLHDGVCMYIEALDKYACNCVVGYIGERCQYRDLKWWELR; UniProt P01133 971-1023, looked up)", "values": [{"measurement": "effect on HE4 levels in media or cell-lysate of SKOV-3 cells", "setting": "HE4", "value": "elevate HE4 levels"}, {"measurement": "effect on mRNA expression of HE4 in SKOV-3 cells", "setting": "HE4 mRNA", "value": "did not affect mRNA expression of HE4"}]}, {"molecule": "IL-6: cytokine", "values": [{"measurement": "effect on HE4 levels in media or cell-lysate of SKOV-3 cells", "setting": "HE4", "value": "suppresses the HE4 levels"}, {"measurement": "effect on mRNA expression of HE4 in SKOV-3 cells", "setting": "HE4 mRNA", "value": "did not affect mRNA expression of HE4"}]}, {"molecule": "Insulin: growth factor", "values": [{"measurement": "effect on HE4 levels in media or cell-lysate of SKOV-3 cells", "setting": "HE4", "value": "elevate HE4 levels"}, {"measurement": "effect on mRNA expression of HE4 in SKOV-3 cells", "setting": "HE4 mRNA", "value": "did not affect mRNA expression of HE4"}]}, {"molecule": "TNF-a", "values": [{"measurement": "effect on HE4 levels in media or cell-lysate of SKOV-3 cells", "setting": "HE4", "value": "does not alter HE4 levels"}, {"measurement": "effect on mRNA expression of HE4 in SKOV-3 cells", "setting": "HE4 mRNA", "value": "did not affect mRNA expression of HE4"}]}, {"molecule": "Tunicamycin", "values": [{"measurement": "effect on HE4 levels in SKOV-3", "setting": "HE4", "value": "suppressed HE4 levels"}]}]}
